Results taken from PubChem BioAssay (NCI).
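How tested: cells in 96-well plates exposed to compound for 48 hours at five concentrations. TGI: concentration producing complete growth inhibition.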

Columns and labels:
Test in all cases: inhibition of tumour cell growth, NCI panel, 48 h
[1] = system: DU-145 prostate
[2] = system: SR leukemia
[3] = system: HOP-62 NSCLC
[4] = system: CAKI-1 renal
[5] = system: BT-549 breast
[6] = system: SW-620 colon
[7] = system: A549 NSCLC
[8] = system: SK-MEL-28 melanoma
[9] = system: NCI-H460 lung
[10] = system: NCI/ADR-RES ovarian

| Compound | TGI [1] | TGI [2] | TGI [3] | TGI [4] | TGI [5] | TGI [6] | TGI [7] | TGI [8] | TGI [9] | TGI [10] |
| --- | --- | --- | --- | --- | --- | --- | --- | --- | --- | --- |
| CCN(CC)P(=O)(c1ccc2c(c1)OCCOCCOCCOCCO2)N(CC)CC | > 100 µM | > 100 µM | > 100 µM | > 100 µM | > 100 µM | > 100 µM | > 100 µM | > 100 µM | > 100 µM | – |
| Cc1ccccc1NC(=O)C(=O)C(C1OC(=O)c2ccccc21)[N+](=O)[O-] (stereo unspecified) | – | > 100 µM | > 100 µM | > 100 µM | – | > 100 µM | > 100 µM | > 100 µM | > 100 µM | – |
| COc1ccc(/C=C2\C(=O)N(C(=O)c3ccc(NC(C)=O)cc3)N=C2C)cc1OC | – | > 100 µM | > 100 µM | > 100 µM | – | > 100 µM | > 100 µM | > 100 µM | > 100 µM | – |
| O=c1[nH]c2c(C(F)(F)F)c(Cl)c(-c3ccccc3)nc2o1 | > 100 µM | – | > 100 µM | > 100 µM | 60.3 µM | > 100 µM | > 100 µM | > 100 µM | 69.8 µM | 67.2 µM |
| CN(C)N1C(=C(C#N)C#N)C(c2ccccc2)CC1C#N (stereo unspecified) | > 100 µM | – | > 100 µM | > 100 µM | – | > 100 µM | > 100 µM | > 100 µM | – | > 100 µM |
| O=[N+]([O-])C(/C(Cl)=C(/Cl)N1CCOCC1)=C1\Nc2ccccc2O1 | > 100 µM | – | > 100 µM | > 100 µM | > 100 µM | > 100 µM | > 100 µM | > 100 µM | > 100 µM | > 100 µM |
| CCOC(=O)c1ccc(-c2onc(C)c2Br)[nH]1 | > 100 µM | – | > 100 µM | > 100 µM | > 100 µM | > 100 µM | > 100 µM | > 100 µM | > 100 µM | > 100 µM |
| O=C(Nc1ccc(Cl)cc1)c1cc(S(=O)(=O)Nc2nc3ncccc3[nH]2)c(SSc2cc(Cl)c(C(=O)Nc3ccc(Cl)cc3)cc2S(=O)(=O)Nc2nc3ncccc3[nH]2)cc1Cl | > 100 µM | – | > 100 µM | > 100 µM | > 100 µM | > 100 µM | > 100 µM | > 100 µM | > 100 µM | > 100 µM |
